Here are results for 16 compounds from patent publication US20060281771A1, “SYNERGISTIC MODULATION OF FLT3 KINASE USING AMINOQUINOLINE AND AMINOQUINAZOLINE KINASE MODULATORS” (priority 2005, published 2006).

Test [1] deals with T1, isolated kinase domain of the human FLT3 receptor (a.a. 571-993) (Homo sapiens, UniProt P36888).
T1 construct: human FLT3 receptor (a.a. 571-993)
T1 sequence (P36888 571-993): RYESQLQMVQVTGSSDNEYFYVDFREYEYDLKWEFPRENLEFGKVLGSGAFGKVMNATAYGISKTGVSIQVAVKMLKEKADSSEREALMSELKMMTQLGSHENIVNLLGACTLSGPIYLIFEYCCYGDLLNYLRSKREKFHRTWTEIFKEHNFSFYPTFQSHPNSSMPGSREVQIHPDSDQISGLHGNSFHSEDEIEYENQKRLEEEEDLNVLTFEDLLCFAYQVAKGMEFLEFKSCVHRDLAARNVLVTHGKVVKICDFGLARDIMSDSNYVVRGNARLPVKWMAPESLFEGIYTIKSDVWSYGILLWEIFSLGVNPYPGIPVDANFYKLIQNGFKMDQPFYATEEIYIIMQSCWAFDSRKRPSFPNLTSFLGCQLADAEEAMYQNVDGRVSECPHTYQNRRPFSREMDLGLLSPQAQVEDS
The experiment in a line: FLT3 fluorescence polarization kinase assay. Format: biochemical.

In test [2] the target is T2, wild-type FLT3 phosphorylation in Baf3 FLT3 cells (Homo sapiens, UniProt P36888).
T2 construct: host or cells: Baf3 (murine B cell lymphoma line)
T2 sequence (P36888 27-993): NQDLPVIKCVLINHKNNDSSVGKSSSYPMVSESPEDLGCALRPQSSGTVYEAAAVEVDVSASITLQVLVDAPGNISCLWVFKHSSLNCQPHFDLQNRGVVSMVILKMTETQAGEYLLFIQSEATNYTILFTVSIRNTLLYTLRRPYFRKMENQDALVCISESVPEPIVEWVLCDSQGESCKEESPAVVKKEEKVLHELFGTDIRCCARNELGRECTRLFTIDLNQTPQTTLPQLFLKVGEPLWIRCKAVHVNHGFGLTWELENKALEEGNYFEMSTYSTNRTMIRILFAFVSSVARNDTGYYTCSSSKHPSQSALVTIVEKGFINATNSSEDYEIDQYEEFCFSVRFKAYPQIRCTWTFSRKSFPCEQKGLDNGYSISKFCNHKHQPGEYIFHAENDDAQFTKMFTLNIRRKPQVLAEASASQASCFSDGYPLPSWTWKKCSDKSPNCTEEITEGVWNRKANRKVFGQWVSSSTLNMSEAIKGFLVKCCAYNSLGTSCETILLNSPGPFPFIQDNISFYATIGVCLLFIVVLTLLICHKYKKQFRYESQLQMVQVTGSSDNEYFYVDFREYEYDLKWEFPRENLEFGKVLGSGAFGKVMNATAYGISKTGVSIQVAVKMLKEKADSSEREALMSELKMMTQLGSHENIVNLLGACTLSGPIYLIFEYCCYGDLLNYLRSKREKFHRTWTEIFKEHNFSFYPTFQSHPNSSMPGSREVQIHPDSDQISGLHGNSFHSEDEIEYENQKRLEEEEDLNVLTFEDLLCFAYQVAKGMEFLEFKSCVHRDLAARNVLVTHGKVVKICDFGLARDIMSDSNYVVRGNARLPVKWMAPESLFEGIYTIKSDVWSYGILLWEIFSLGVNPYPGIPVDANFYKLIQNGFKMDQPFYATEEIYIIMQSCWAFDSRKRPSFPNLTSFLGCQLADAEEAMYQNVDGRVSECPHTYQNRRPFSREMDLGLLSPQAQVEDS
Kind of test: Cell-based FLT3 receptor ELISA. As to conditions: FLT ligand-induced FLT3 phosphorylation. The method, boiled down:
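Baf3 cells stably expressing wild-type human FLT3 were starved 16 h in 0.5% serum with 0.01 ng/mL IL-3, given compound for 1 h, then stimulated with 100 ng/mL FLT ligand for 10 min at 37 °C. Lysates were captured on anti-FLT3 plates and probed with HRP anti-phosphotyrosine (4G10), read by chemiluminescence. IC50 came from sigmoidal variable-slope fits of triplicates.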

The IC50 is the concentration needed to halve the response being measured. A higher IC50 goes with lower potency.

Turning to `COc1cc2ncnc(N3CCC(NC(=O)Nc4ccc(C(C)C)cc4)C3)c2cc1OC` (centres unmarked) [Compound 7, 1-[1-(6,7-Dimethoxy-quinazolin-4-yl)-pyrrolidin-3-yl]-3-(4-isopropyl-phenyl)-urea], the results for the IC50 in test [1] and in test [2] were 16 nM and 140 nM, respectively.
In the same order, the values of `COc1cc2ncnc(N3CCC(OC(=O)Nc4ccc(C(C)C)cc4)CC3)c2cc1OC` [Compound 1, (4-Isopropyl-phenyl)-carbamic acid 1-(6,7-dimethoxy-quinazolin-4-yl)-piperidin-4-yl ester] are 6 nM and 16 nM.
As for `COc1cc2ncnc(N3CCCC(NC(=O)Nc4ccc(C(C)C)cc4)C3)c2cc1OC` (centres unmarked) [Compound 28, 1-[1-(6,7-Dimethoxy-quinazolin-4-yl)-piperidin-3-yl]-3-(4-isopropyl-phenyl)-urea], the results for the half-inhibitory concentration (IC50) in test [1] and in test [2] were 510 nM and 1900 nM, respectively.
For `CC(C)c1ccc(NC(=O)OC2CCN(c3ncnc4ccc(C#CCO)cc34)C2)cc1` (centres unmarked) [Compound 14, (4-Isopropyl-phenyl)-carbamic acid 1-[6-(3-hydroxy-prop-1-ynyl)-quinazolin-4-yl]-pyrrolidin-3-yl ester], in that order: 37 nM and 4 nM.
With `COc1cc2ncnc(N3CCC(CC(=O)Nc4ccc(C(C)C)cc4)CC3)c2cc1OC` [Compound 5, 2-[1-(6,7-Dimethoxy-quinazolin-4-yl)-piperidin-4-yl]-N-(4-isopropyl-phenyl)-acetamide], the concentration for half-maximal inhibition (IC50) in test [1] is 12 nM; in test [2], 6 nM.
`COc1cc2ncc(C#N)c(N3CCC(OC(=O)Nc4ccc(C(C)C)cc4)C3)c2cc1OC` (centres unmarked) [Compound 37, (4-Isopropyl-phenyl)-carbamic acid 1-(3-cyano-6,7-dimethoxy-quinolin-4-yl)-pyrrolidin-3-yl ester]: the figures for the IC50 in test [1] and in test [2] were 2140 nM and 1100 nM, respectively.
Turning to `COc1cc2ncnc(N3CCC(NC(=O)Cc4ccc(C(C)C)cc4)C3)c2cc1OC` (centres unmarked) [Compound 35, N-[1-(6,7-Dimethoxy-quinazolin-4-yl)-pyrrolidin-3-yl]-2-(4-isopropyl-phenyl)-acetamide], the IC50 is 1300 nM in test [1] and above 3000 nM in test [2].
With `COc1cc2ncnc(N3CCCCC3COC(=O)Nc3ccc(C(C)C)cc3)c2cc1OC` (centres unmarked) [Compound 33, (4-Isopropyl-phenyl)-carbamic acid 1-(6,7-dimethoxy-quinazolin-4-yl)-piperidin-2-ylmethyl ester], the IC50 is 1000 nM in test [1] and 559 nM in test [2].
On to `COc1cc2ncnc(N3CCCC3COC(=O)Nc3ccc(C(C)C)cc3)c2cc1OC` (centres unmarked) [Compound 9], for which the IC50 in test [1] was found to be 25 nM; in test [2] it was 27 nM.
For `COc1cc2ncnc(N3CCC(C(=O)Nc4ccc(OC(C)C)cc4)CC3)c2cc1OC` [Compound 23, 1-(6,7-Dimethoxy-quinazolin-4-yl)-piperidine-4-carboxylic acid (4-isopropoxy-phenyl)-amide], the results for the IC50 in test [1] and in test [2] were 185 nM and 176 nM, respectively.
With `COc1cc2ncnc(N3CCC(CC(=O)Nc4ccc(C(C)C)cc4)C3)c2cc1OC` (centres unmarked) [Compound 6, 2-[11-(6,7-Dimethoxy-quinazolin-4-yl)-pyrrolidin-3-yl]-N-(4-isopropyl-phenyl)-acetamide], the IC50 was 14 nM in test [1] and 46 nM in test [2].
Regarding `COc1cc2ncnc(N3CCC(OC(=O)Nc4ccc(OC(C)C)cc4)CC3)c2cc1OC` [Compound 3, (4-Isopropoxy-phenyl)-carbamic acid 1-(6,7-dimethoxy-quinazolin-4-yl)-piperidin-4-yl ester], the IC50 in test [1] came out at 8 nM; in test [2], 118 nM.
With `COc1cc2ncnc(N3CCC(N(C)C(=O)Nc4ccc(C(C)C)cc4)C3)c2cc1OC` (centres unmarked) [Compound 19, 1-[1-(6,7-Dimethoxy-quinazolin-4-yl)-pyrrolidin-3-yl]-3-(4-isopropyl-phenyl)-1-methyl-urea], the IC50 worked out at 68 nM in test [1] and 210 nM in test [2].
For the compound `COc1cc2ncnc(N3CCC(NC(=O)Cc4ccc(C(C)C)cc4)CC3)c2cc1OC` [Compound 21, N-[1-(6,7-Dimethoxy-quinazolin-4-yl)-piperidin-4-yl]-2-(4-isopropyl-phenyl)-acetamide], the IC50 in test [1] amounted to 150 nM; in test [2] it was 63 nM.
`COc1cc2ncnc(N3CCC(OC(=O)Nc4ccc(OC(C)C)cc4)C3)c2cc1OC` (centres unmarked) [Compound 15, (4-Isopropoxy-phenyl)-carbamic acid 1-(6,7-dimethoxy-quinazolin-4-yl)-pyrrolidin-3-yl ester]: the half-inhibitory concentration (IC50) in test [1] worked out at 42 nM; in test [2] it was 320 nM.
As to `CC(C)c1ccc(NC(=O)OC2CCN(c3ncnc4ccc(I)cc34)C2)cc1` (centres unmarked) [Compound 20, (4-Isopropyl-phenyl)-carbamic acid 1-(6-iodo-quinazolin-4-yl)-pyrrolidin-3-yl ester], the results for the IC50 in test [1] and in test [2] were 96 nM and 43 nM, respectively.
